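Method: 48-hour compound exposure of cells in 96-well plates, five concentrations, linear interpolation of endpoints. Here, GI50 denotes the concentration required for 50% inhibition of growth.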 Active and inactive are the calls of the source. Rule as the data show it: active = GI50 up to about 1.1 µM and inactive = higher.
Tests used:
Assay in all cases: DTP human tumour cell line panel, 48 h
786-0 = system: 786-0
A498 = system: A498
A549 = system: A549
ACHN = system: ACHN
CAKI-1 = system: CAKI-1
CCRF-CEM = system: CCRF-CEM
COLO 205 = system: COLO 205
DU-145 = system: DU-145
EKVX = system: EKVX
HCC 2998 = system: HCC 2998
HCT-116 = system: HCT-116
HCT-15 = system: HCT-15
HL-60 = system: HL-60
HOP-62 = system: HOP-62
HOP-92 = system: HOP-92
HT-29 = system: HT-29
Hs-578T = system: Hs-578T
IGROV-1 = system: IGROV-1
K562 = system: K562
KM12 = system: KM12
LOX IMVI = system: LOX IMVI
M14 = system: M14
MCF7 = system: MCF7
MDA-MB-231 = system: MDA-MB-231
MDA-MB-435 = system: MDA-MB-435
MDA-N = system: MDA-N
MOLT-4 = system: MOLT-4
Malme-3M = system: Malme-3M
NCI-H226 = system: NCI-H226
NCI-H23 = system: NCI-H23
NCI-H460 = system: NCI-H460
NCI-H522 = system: NCI-H522
NCI/ADR-RES = system: NCI/ADR-RES
OVCAR-3 = system: OVCAR-3
OVCAR-4 = system: OVCAR-4
OVCAR-5 = system: OVCAR-5
OVCAR-8 = system: OVCAR-8
PC-3 = system: PC-3
RPMI-8226 = system: RPMI-8226
RXF 393 = system: RXF 393
SF-268 = system: SF-268
SF-295 = system: SF-295
SF-539 = system: SF-539
SK-MEL-28 = system: SK-MEL-28
SK-MEL-2 = system: SK-MEL-2
SK-MEL-5 = system: SK-MEL-5
SK-OV-3 = system: SK-OV-3
SN12C = system: SN12C
SNB-19 = system: SNB-19
SNB-75 = system: SNB-75
SR = system: SR
SW-620 = system: SW-620
T47D = system: T47D
TK-10 = system: TK-10
U-251 = system: U-251
UACC-257 = system: UACC-257
UACC-62 = system: UACC-62
UO-31 = system: UO-31
BT-549 = system: BT-549

COc1ccc(/C=C/C(=O)c2cc(OC)cc(OC)c2)cc1
GI50 (786-0): 1.16 µM (inactive) | GI50 (A498): 3.67 µM (inactive) | GI50 (A549): 2.13 µM (inactive) | GI50 (ACHN): 4.7 µM (inactive) | GI50 (CAKI-1): 2.59 µM (inactive) | GI50 (CCRF-CEM): 2.07 µM (inactive) | GI50 (COLO 205): 4.56 µM (inactive) | GI50 (DU-145): 3.24 µM (inactive) | GI50 (EKVX): 6.52 µM (inactive) | GI50 (HCC 2998): 4.44 µM (inactive) | GI50 (HCT-116): 1.22 µM (inactive) | GI50 (HCT-15): 0.543 µM | GI50 (HL-60): 0.151 µM (active) | GI50 (HOP-62): 3.78 µM (inactive) | GI50 (HOP-92): 20.8 µM (inactive) | GI50 (HT-29): 1.91 µM (inactive) | GI50 (Hs-578T): 5.75 µM (inactive) | GI50 (IGROV-1): 4.57 µM (inactive) | GI50 (K562): 2.59 µM (inactive) | GI50 (KM12): 0.265 µM (active) | GI50 (LOX IMVI): 1.35 µM (inactive) | GI50 (M14): 2.45 µM (inactive) | GI50 (MCF7): 0.219 µM (active) | GI50 (MDA-MB-231): 6.79 µM (inactive) | GI50 (MDA-MB-435): 1.54 µM (inactive) | GI50 (MDA-N): 1.94 µM (inactive) | GI50 (MOLT-4): 4.63 µM (inactive) | GI50 (Malme-3M): 13.6 µM (inactive) | GI50 (NCI-H226): 10.2 µM (inactive) | GI50 (NCI-H23): 2.58 µM (inactive) | GI50 (NCI-H460): 2.9 µM (inactive) | GI50 (NCI-H522): 2.22 µM (inactive) | GI50 (NCI/ADR-RES): 2.69 µM (inactive) | GI50 (OVCAR-3): 4.02 µM (inactive) | GI50 (OVCAR-4): 3.45 µM (inactive) | GI50 (OVCAR-5): 5.6 µM (inactive) | GI50 (OVCAR-8): 3.39 µM (inactive) | GI50 (PC-3): 6.12 µM (inactive) | GI50 (RPMI-8226): 0.646 µM (active) | GI50 (RXF 393): 3.33 µM (inactive) | GI50 (SF-268): 5.4 µM (inactive) | GI50 (SF-295): 1.24 µM (inactive) | GI50 (SF-539): 1.05 µM (active) | GI50 (SK-MEL-28): 5.97 µM (inactive) | GI50 (SK-MEL-2): 18.7 µM (inactive) | GI50 (SK-MEL-5): 10.3 µM (inactive) | GI50 (SK-OV-3): 6.71 µM (inactive) | GI50 (SN12C): 3.56 µM (inactive) | GI50 (SNB-19): 1.69 µM (inactive) | GI50 (SNB-75): 2.64 µM (inactive) | GI50 (SR): 0.371 µM (active) | GI50 (SW-620): 0.64 µM (active) | GI50 (T47D): 3.11 µM (inactive) | GI50 (TK-10): 11.5 µM (inactive) | GI50 (U-251): 1.24 µM (inactive) | GI50 (UACC-257): 13.6 µM (inactive) | GI50 (UACC-62): 4.14 µM (inactive) | GI50 (UO-31): 3.27 µM (inactive)

O=C(NCCCN(CCCCN(CCCNC(=O)C(F)(F)F)Cc1ccc2ccccc2c1)Cc1ccc2ccccc2c1)C(F)(F)F
GI50 (786-0): > 100 µM (inactive) | GI50 (A498): > 100 µM (inactive) | GI50 (A549): > 100 µM (inactive) | GI50 (ACHN): > 100 µM (inactive) | GI50 (BT-549): 6.22 µM (inactive) | GI50 (CCRF-CEM): > 78.2 µM (inactive) | GI50 (COLO 205): 1.95 µM (inactive) | GI50 (DU-145): > 100 µM (inactive) | GI50 (EKVX): > 100 µM (inactive) | GI50 (HCC 2998): 1.53 µM (inactive) | GI50 (HCT-116): 4.45 µM (inactive) | GI50 (HCT-15): 6.12 µM | GI50 (HL-60): 0.74 µM (active) | GI50 (HOP-62): > 100 µM (inactive) | GI50 (HOP-92): > 100 µM (inactive) | GI50 (HT-29): 1.44 µM (inactive) | GI50 (IGROV-1): 7.87 µM (inactive) | GI50 (K562): 2.48 µM (inactive) | GI50 (KM12): 5.83 µM (inactive) | GI50 (LOX IMVI): 4.36 µM (inactive) | GI50 (M14): 1.99 µM (inactive) | GI50 (MCF7): 1.95 µM (inactive) | GI50 (MDA-MB-231): > 100 µM (inactive) | GI50 (MDA-MB-435): 1.9 µM (inactive) | GI50 (MOLT-4): 5.28 µM (inactive) | GI50 (NCI-H226): > 100 µM (inactive) | GI50 (NCI-H460): 2.21 µM (inactive) | GI50 (NCI-H522): 8.93 µM (inactive) | GI50 (NCI/ADR-RES): 73.5 µM (inactive) | GI50 (OVCAR-3): > 100 µM (inactive) | GI50 (OVCAR-4): 2.62 µM (inactive) | GI50 (OVCAR-5): > 100 µM (inactive) | GI50 (OVCAR-8): > 100 µM (inactive) | GI50 (PC-3): 6.95 µM (inactive) | GI50 (RPMI-8226): 2.81 µM (inactive) | GI50 (RXF 393): 3.77 µM (inactive) | GI50 (SF-268): > 100 µM (inactive) | GI50 (SF-295): > 28.6 µM (inactive) | GI50 (SF-539): 4.62 µM (inactive) | GI50 (SK-MEL-28): 2.32 µM (inactive) | GI50 (SK-MEL-2): > 20 µM (inactive) | GI50 (SK-MEL-5): 1.75 µM (inactive) | GI50 (SK-OV-3): > 100 µM (inactive) | GI50 (SN12C): > 100 µM (inactive) | GI50 (SNB-75): > 100 µM (inactive) | GI50 (SR): 2.7 µM (inactive) | GI50 (SW-620): > 100 µM (inactive) | GI50 (T47D): 5.05 µM (inactive) | GI50 (TK-10): > 100 µM (inactive) | GI50 (U-251): 3.91 µM (inactive) | GI50 (UACC-257): 2.28 µM (inactive) | GI50 (UACC-62): 2.31 µM (inactive) | GI50 (UO-31): 2.33 µM (inactive)

— ChEMBL document CHEMBL1201862, “PubChem BioAssay data set” (2004)
